Experimental data published in patent publication US6358885B1, “Substituted phenylheterocyclic herbicides” (Mississippi State University, priority 1992, dated 2002).

Key:
blackgrass = assay: Test B preemergence/postemergence greenhouse plant response rating 0 to 10; format: in vivo, Alopecurus myosuroides; details: 0 to 10 scale
How it was run: (§1)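 Both application timings were run together: seeds got compound preemergence, and established seedlings (two to eighteen cm) got it postemergence. Non-phytotoxic solvent carried the chemical. Ratings are visual, versus controls, at twelve to sixteen days.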

corn = assay: as above; format: in vivo, Zea mays; details: 0 to 10 scale
How it was run: as §1

cotton [1] = assay: as above; format: in vivo, Gossypium hirsutum; details: 0 to 10 scale
How it was run: as §1

crabgrass = assay: as above; format: in vivo, Digitaria spp.; details: 0 to 10 scale
How it was run: as §1

rice = assay: as above; format: in vivo, Oryza sativa; details: 0 to 10 scale
How it was run: as §1

sorghum = assay: as above; format: in vivo, Sorghum bicolor; details: 0 to 10 scale
How it was run: as §1

sugar beet = assay: as above; format: in vivo, Beta vulgaris; details: 0 to 10 scale
How it was run: as §1

wheat [2] = assay: as above; format: in vivo, Triticum aestivum; details: 0 to 10 scale
How it was run: as §1

wild oat = assay: as above; format: in vivo, Avena fatua; details: 0 to 10 scale
How it was run: as §1

purple nutsedge = assay: as above; format: in vivo, Cyperus rotundus; details: 0 to 10 scale
How it was run: as §1

cotton [3] = assay: Test C preemergence/postemergence greenhouse plant response rating 0 to 100; format: in vivo, Gossypium hirsutum; details: POSTEMERGENCE; for Plant response rating, Cotton: 0 to 100 scale
How it was run: (§2)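 Compounds in non-phytotoxic solvent applied preemergence to sandy loam one day after planting, postemergence at the 1–4 leaf stage, or to ~2.5 cm floodwater over silt loam.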

lambsquarters = assay: as above; format: in vivo, Chenopodium album; details: POSTEMERGENCE; for Plant response rating Lambsquarters: 0 to 100 scale
How it was run: as §2

pigweed = assay: as above; format: in vivo, Amaranthusretroflexus; details: POSTEMERGENCE; for Plant response rating Pigweed: 0 to 100 scale
How it was run: as §2

velvetleaf = assay: as above; format: in vivo, Abutilon theophrasti; details: POSTEMERGENCE; for Plant response rating, Velvetleaf: 0 to 100 scale
How it was run: as §2

wheat [4] = assay: as above; format: in vivo, Triticum aestivum; details: POSTEMERGENCE; for Plant response rating, Wheat: 0 to 100 scale
How it was run: as §2

wild buckwheat = assay: as above; format: in vivo, Polygonum convolvulus; details: POSTEMERGENCE; for Plant response rating, Wild buckwheat: 0 to 100 scale
How it was run: as §2

duck salad = assay: Test C flood test plant response rating 0 to 100; format: in vivo, Heteranthera limosa; details: for Plant response rating (0 to 100), Duck salad: under POSTEMERGENCE head (flood test species); for Plant response rating Duck salad: flood test species listed under POSTEMERGENCE, 0 to 100 scale
How it was run: as §2

barnyardgrass = assay: Test C flood test plant response rating 0 to 100; format: in vivo, Echinochloa crus-galli; details: for Plant response rating (0 to 100), Barnyardgrass: under POSTEMERGENCE head (flood test species); for Plant response rating, Barnyardgrass: flood test species listed under POSTEMERGENCE, 0 to 100 scale
How it was run: as §2

C#CC(C)Oc1cc(-c2nn3c(c2Cl)CCCC3)c(F)cc1Cl (centres unmarked) [Compound 36]
Plant response rating, Blackgrass (blackgrass; POSTEMERGENCE, Rate 50 g/ha): 5
Plant response rating, Blackgrass (blackgrass; POSTEMERGENCE, Rate 200 g/ha): 7
Plant response rating, Blackgrass (blackgrass; PREEMERGENCE, Rate 50 g/ha): 4
Plant response rating, Blackgrass (blackgrass; Rate 200 g/ha, PREEMERGENCE): 10
Plant response rating, Corn (corn; POSTEMERGENCE, Rate 50 g/ha): 5
Plant response rating, Corn (corn; POSTEMERGENCE, Rate 200 g/ha): 6
Plant response rating, Corn (corn; PREEMERGENCE, Rate 50 g/ha): 0
Plant response rating, Corn (corn; Rate 200 g/ha, PREEMERGENCE): 4
Plant response rating, Cotton (cotton [1]; POSTEMERGENCE, Rate 50 g/ha): 9
Plant response rating, Cotton (cotton [1]; POSTEMERGENCE, Rate 200 g/ha): 10
Plant response rating, Cotton (cotton [1]; PREEMERGENCE, Rate 50 g/ha): 4
Plant response rating, Cotton (cotton [1]; Rate 200 g/ha, PREEMERGENCE): 6
Plant response rating, Crabgrass (crabgrass; POSTEMERGENCE, Rate 50 g/ha): 5
Plant response rating, Crabgrass (crabgrass; POSTEMERGENCE, Rate 200 g/ha): 7
Plant response rating, Crabgrass (crabgrass; PREEMERGENCE, Rate 50 g/ha): 5
Plant response rating, Crabgrass (crabgrass; Rate 200 g/ha, PREEMERGENCE): 9
Plant response rating, Rice (rice; POSTEMERGENCE, Rate 50 g/ha): 6
Plant response rating, Rice (rice; PREEMERGENCE, Rate 50 g/ha): 0
Plant response rating, Rice (rice; Rate 200 g/ha, POSTEMERGENCE): 6
Plant response rating, Rice (rice; Rate 200 g/ha, PREEMERGENCE): 4
Plant response rating, Sorghum (sorghum; POSTEMERGENCE, Rate 50 g/ha): 5
Plant response rating, Sorghum (sorghum; PREEMERGENCE, Rate 50 g/ha): 0
Plant response rating, Sorghum (sorghum; Rate 200 g/ha, POSTEMERGENCE): 6
Plant response rating, Sorghum (sorghum; Rate 200 g/ha, PREEMERGENCE): 1
Plant response rating, Sugar beet (sugar beet; POSTEMERGENCE, Rate 50 g/ha): 10
Plant response rating, Sugar beet (sugar beet; PREEMERGENCE, Rate 50 g/ha): 9
Plant response rating, Sugar beet (sugar beet; Rate 200 g/ha, POSTEMERGENCE): 10
Plant response rating, Sugar beet (sugar beet; Rate 200 g/ha, PREEMERGENCE): 9
Plant response rating, Wheat (wheat [2]; POSTEMERGENCE, Rate 50 g/ha): 5
Plant response rating, Wheat (wheat [2]; PREEMERGENCE, Rate 50 g/ha): 5
Plant response rating, Wheat (wheat [2]; Rate 200 g/ha, POSTEMERGENCE): 6
Plant response rating, Wheat (wheat [2]; Rate 200 g/ha, PREEMERGENCE): 5
Plant response rating, Wild oat (wild oat; POSTEMERGENCE, Rate 50 g/ha): 5
Plant response rating, Wild oat (wild oat; PREEMERGENCE, Rate 50 g/ha): 3
Plant response rating, Wild oat (wild oat; Rate 200 g/ha, POSTEMERGENCE): 6
Plant response rating, Nutsedge (purple nutsedge; POSTEMERGENCE, Rate 50 g/ha): 4
Plant response rating, Nutsedge (purple nutsedge; PREEMERGENCE, Rate 50 g/ha): 0
Plant response rating, Nutsedge (purple nutsedge; Rate 200 g/ha, POSTEMERGENCE): 5
Plant response rating, Nutsedge (purple nutsedge; Rate 200 g/ha, PREEMERGENCE): 2
Plant response rating, Cotton (cotton [3]; 62 g/ha): 100
Plant response rating, Cotton (cotton [3]; 125 g/ha): 100
Plant response rating (0 to 100), Cotton (cotton [3]; Rate 16 g/ha): 100
Plant response rating (0 to 100), Cotton (cotton [3]; Rate 31 g/ha): 100
Plant response rating Lambsquarters (lambsquarters; 62 g/ha): 100
Plant response rating Lambsquarters (lambsquarters; 125 g/ha): 100
Plant response rating (0 to 100), Lambsquarters (lambsquarters; Rate 16 g/ha): 90
Plant response rating (0 to 100), Lambsquarters (lambsquarters; Rate 31 g/ha): 95
Plant response rating Pigweed (pigweed; 62 g/ha): 100
Plant response rating Pigweed (pigweed; 125 g/ha): 100
Plant response rating (0 to 100), Pigweed (pigweed; Rate 16 g/ha): 100
Plant response rating (0 to 100), Pigweed (pigweed; Rate 31 g/ha): 100
Plant response rating, Velvetleaf (velvetleaf; 62 g/ha): 100
Plant response rating, Velvetleaf (velvetleaf; 125 g/ha): 100
Plant response rating (0 to 100), Velvetleaf (velvetleaf; Rate 16 g/ha): 100
Plant response rating (0 to 100), Velvetleaf (velvetleaf; Rate 31 g/ha): 100
Plant response rating, Wheat (wheat [4]; 62 g/ha): 50
Plant response rating, Wheat (wheat [4]; 125 g/ha): 50
Plant response rating (0 to 100), Wheat (wheat [4]; Rate 16 g/ha): 20
Plant response rating (0 to 100), Wheat (wheat [4]; Rate 31 g/ha): 30
Plant response rating, Wild buckwheat (wild buckwheat; 62 g/ha): 100
Plant response rating, Wild buckwheat (wild buckwheat; 125 g/ha): 100
Plant response rating (0 to 100), Wild buckwheat (wild buckwheat; Rate 16 g/ha): 70
Plant response rating (0 to 100), Wild buckwheat (wild buckwheat; Rate 31 g/ha): 70
Plant response rating (0 to 100), Duck salad (duck salad; Rate 16 g/ha): 0
Plant response rating (0 to 100), Duck salad (duck salad; Rate 31 g/ha): 0
Plant response rating Duck salad (duck salad; 62 g/ha): 30
Plant response rating Duck salad (duck salad; 125 g/ha): 50
Plant response rating (0 to 100), Barnyardgrass (barnyardgrass; Rate 16 g/ha): 100
Plant response rating (0 to 100), Barnyardgrass (barnyardgrass; Rate 31 g/ha): 100
Plant response rating, Barnyardgrass (barnyardgrass; 62 g/ha): 100
Plant response rating, Barnyardgrass (barnyardgrass; 125 g/ha): 100
